The record followed here is PubChem BioAssay AID2060328 (Molecular Pharmacology Branch, DTP, NCI, 2025).

pIC50: −log10 of the molar value. “And” between values parts separate entries of the source, which are not always exact repeats. Equal values may be shown once. A value given as a limit tells only on which side of the number the result lay.

The test system of this assay is MDA-MB-231 multicell spheroids, viability (%T/C). Description: Anticancer human tumor MDA-MB-231 cell line growth inhibition [IpAb].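 On all read-outs here: viability read after seven days of drug exposure.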 As to conditions: for viability, T/C: stronger effect = lower value; for pIC50: curve of compound. The text has this:
Combinatorial screen of targeted agents with ipatasertib and abemaciclib in multi-cell type tumor spheroids
A high-throughput screen of multi-cell type tumor spheroids was designed to identify active combinations of targeted small molecules and ipatasertib or abemaciclib. Complex spheroids include a stromal component modeled by human endothelial cells (HUVEC) and fibroblasts modeled by human mesenchymal stem cells (MSCs). The concentration ranges selected for each drug and investigational agent were based upon clinically achievable concentrations if the clinical Cmax of the agent was known.
Compounds. The drugs and investigational agents: ipatasertib (NSC767898), abemaciclib(NSC768073), selumetinib (NSC741078), trametinib (758246), adavosertib (NSC754352), everolimus (NSC733504), sapanisertib (NSC764658), vemurafenib (NSC761431), venetoclax (NSC766270), copanlisib (NSC809693), apelisib (NSC765974), palbociblib (NSC758247), vemurafenib (NSC761431), dabrafenib (NSC764134), ravoxertinib (NSC781343), BMS-387032 (NSC767048), sotorasib (NSC818433), talazoparib (NSC767125) and afursertib (NSC778305), were obtained from the National Cancer Institute (NCI) Developmental Therapeutics Program Chemical Repository. The FDA-approved anticancer drug set is available from the NCI Developmental Therapeutics Program. […] The stock solutions were prepared in dimethyl sulfoxide (DMSO, Sigma-Aldrich, St. Louis, MO, cat. D2650) at 800-fold the tested concentration and stored at -70 degrees C prior to their use. All drugs and investigational agents were tested over a range starting from a high concentration at or near the clinical Cmax and decreasing in half-log increments. If the clinical Cmax for an agent had not been determined, the highest concentration tested was 10 microM.
NCI60 Cell Culture. NCI60 cell lines were obtained from the NCI Developmental Therapeutics Program Tumor Repository. For each lot of cells, the Repository performed Applied Biosystems AmpFLSTR Identifiler testing with PCR amplification to confirm consistency with the published Identifier STR profile for each cell line. Cells were kept in continuous culture for no more than 20 passages. The optimal seeding densities for each of the cell lines at each time point assessed were determined prior to performing the concentration response studies. Briefly, the NCI60 human tumor lines were grown as monolayers in RPMI 1640 medium supplemented with 10% FBS and 2 mmol/L L-glutamine.
An additional 9 lines were from the NCI60 cell line panel including MDA-MB-231 breast carcinoma, MDA-MB-468 breast carcinoma, MCF7 breast carcinoma, Hs578T breast carcinoma, MALME-3M melanoma, SK-MEL-2 melanoma, SK-OV-3 ovarian carcinoma, DU-145 prostate carcinoma, PC-3 prostate carcinoma, all cell lines along with major genetic alterations are listed on Table 2. Pooled donor human umbilical vein endothelial cells (HUVEC, Lonza, cat. CC-2519) and human mesenchymal stem cells (hMSC, Lonza, cat. PT-2501) were purchased from Lonza (Walkersville, MD).
PDMR cell lines were grown in complete medium (DC medium): Dulbecco's modified Eagle's medium (DMEM)/F12 supplemented with 5% fetal bovine serum (FBS), 2 mM L-glutamine, 100 U/mL penicillin and 100 µg/ml streptomycin, 0.4 µg/ml hydrocortisone, 10 ng/ml epidermal growth factor (EGF) recombinant human protein, 24 µg/mL adenine, and 0.1 mg/mL primocin. During culture from frozen stock vials, PDMR cells were cultured in the same medium containing 10 µM Y-27632 (see Table 3). The PDCs were cultured in complete DMEM/F12 media without 10 microM Y-27632 dihydrochloride for at least two passages prior to the screen. The pooled donor HUVEC and hMSC were cultured in endothelial cell growth medium 2 (PromoCell, Heidelberg, Germany, cat. C-22011) and mesenchymal stem cell growth medium 2 (PromoCell, cat. C-28009), respectively. For all experiments, HUVEC and hMSC were used at passages </=5.
[…]

As a reminder, the viability, T/C is the ratio of treated to control. By pIC50 is commonly meant the IC50 on a negative log10 scale, so that one unit is a factor of ten. Consider `C=CC(=O)N1CCN(c2nc(=O)n(-c3c(C)ccnc3C(C)C)c3nc(-c4c(O)cccc4F)c(F)cc23)C(C)C1` (configuration not stated), for which the pIC50 was under 5.00. Further, the viability, T/C (compound 0.0316 µM) is 106% and 110%. The viability, T/C (compound 0.1 µM) is 111% and 109%. The viability, T/C (compound 0.316 µM) was 109% and 117%. Also, the viability, T/C (compound 1 µM) was 124% and 140%. The viability, T/C (compound 3.16 µM) is 122% and 126%. Moreover, for the setting “compound 10 µM”, the viability, T/C was 82% and 84.4%.

Regarding `C=CCn1c(=O)c2cnc(Nc3ccc(N4CCN(C)CC4)cc3)nc2n1-c1cccc(C(C)(C)O)n1`, the pIC50 is 6.66 and 6.61. Besides, under “compound 0.0316 µM”, the viability, T/C is 99.7% and 119%. Also, the viability, T/C (compound 0.1 µM) is 84.6% and 96.2%. The viability, T/C (compound 0.316 µM) was 34.6% and 37.5%. In addition, under “compound 1 µM”, the viability, T/C is 18.5% and 17.7%. Moreover, the viability, T/C (compound 3.16 µM) was 16.1% and 15.1%. For the same molecule, the viability, T/C (compound 10 µM) is 21.8% and 20.7%.

As for `CC(=O)c1c(C)c2cnc(Nc3ccc(N4CCNCC4)cn3)nc2n(C2CCCC2)c1=O`, the pIC50 is 7.25 and 7.15. For the same molecule, the viability, T/C (compound 0.000949 µM) is 103% and 105%. Moreover, the viability, T/C (compound 0.003 µM) was 88.5% and 88.2%. Moreover, the viability, T/C (compound 0.00949 µM) is 74% and 79.3%. In addition, the viability, T/C (compound 0.03 µM) was 57.7% and 57.8%. Moreover, the viability, T/C (compound 0.0949 µM) is 42.3% and 46%. Besides, under “compound 0.3 µM”, the viability, T/C was 38.7% and 38.9%.

For the molecule `CC(C)(C)c1cnc(CSc2cnc(NC(=O)C3CCNCC3)s2)o1`, the pIC50 is 6.74 and 6.76. Further, under “compound 0.00949 µM”, the viability, T/C was 109%. For the same molecule, the viability, T/C (compound 0.03 µM) is 118% and 115%. Moreover, for the setting “compound 0.0949 µM”, the viability, T/C is 120% and 105%. For the same molecule, for the setting “compound 0.3 µM”, the viability, T/C was 1.96% and 1.34%. For the setting “compound 0.949 µM”, the viability, T/C is 1.07% and 1.11%. Moreover, the viability, T/C (compound 3 µM) is 0.92% and 1.78%.

For orientation: IC50 means the midpoint of a concentration-inhibition curve. Consider `CC(C)NCC(C(=O)N1CCN(c2ncnc3c2C(C)CC3O)CC1)c1ccc(Cl)cc1` (configuration not stated), for which the viability, T/C (compound 0.1 µM) is 95.4% [middle of 13 runs]; the viability, T/C (compound 0.316 µM) was 84.7% [middle of 13 runs]; the viability, T/C (compound 1 µM) was 70.5% [middle of 13 runs]; the viability, T/C (compound 3.16 µM) is 54.9% [middle of 13 runs]; the viability, T/C (compound 10 µM) is 39.5% [middle of 13 runs]. Further, the half-maximal inhibitory concentration (IC50) (compound alone, run of 06/01/2021) was 4.43 µM [middle of 13 runs].

Consider `CC(C)n1nc(-c2ccc3oc(N)nc3c2)c2c(N)ncnc21`, for which the pIC50 was 7.62 and 8.06. Further, where the note is “compound 0.000316 µM”, the viability, T/C was 97.7% and 101%. Further, the viability, T/C (compound 0.001 µM) is 86.1% and 104%. In addition, for the setting “compound 0.00316 µM”, the viability, T/C was 72.2% and 72.1%. Moreover, the viability, T/C (compound 0.01 µM) was 57.6% and 49.4%. Besides, the viability, T/C (compound 0.0316 µM) is 46.5% and 41.5%. In addition, for the setting “compound 0.1 µM”, the viability, T/C was 43.5% and 37.4%.

`CC1(C)CCC(CN2CCN(c3ccc(C(=O)NS(=O)(=O)c4ccc(NCC5CCOCC5)c([N+](=O)[O-])c4)c(Oc4cnc5[nH]ccc5c4)c3)CC2)=C(c2ccc(Cl)cc2)C1`: the pIC50 is 5.25 and 5.23. Besides, the viability, T/C (compound 0.0316 µM) is 104% and 106%. In addition, the viability, T/C (compound 0.1 µM) was 105% and 104%. Besides, under “compound 0.316 µM”, the viability, T/C was 103% and 105%. The viability, T/C (compound 1 µM) is 98.5% and 103%. For the same molecule, the viability, T/C (compound 3.16 µM) was 88.7% and 99.5%. In addition, for the setting “compound 10 µM”, the viability, T/C was 10.3% and 8.49%.

As to `CCCS(=O)(=O)Nc1ccc(F)c(C(=O)c2c[nH]c3ncc(-c4ccc(Cl)cc4)cc23)c1F`, the pIC50 is 5.05 and 5.12. The viability, T/C (compound 0.0316 µM) is 112% and 109%. Also, the viability, T/C (compound 0.1 µM) was 111% and 109%. Where the note is “compound 0.316 µM”, the viability, T/C was 106% and 112%. Further, the viability, T/C (compound 1 µM) is 100% and 104%. Further, for the setting “compound 3.16 µM”, the viability, T/C is 80.9% and 79.1%. The viability, T/C (compound 10 µM) was 46.6% and 41.1%.

With `CCN1CCN(Cc2ccc(Nc3ncc(F)c(-c4cc(F)c5nc(C)n(C(C)C)c5c4)n3)nc2)CC1`, the viability, T/C (compound 0.01 µM) is 88.6% [middle of 13 runs]; the viability, T/C (compound 0.0316 µM) was 74.8% [middle of 13 runs]; the viability, T/C (compound 0.1 µM) was 58.9% [middle of 13 runs]; the viability, T/C (compound 0.316 µM) is 46.5% [middle of 13 runs]; the viability, T/C (compound 1 µM) was 48.8% [middle of 13 runs].

As to `COc1c(OCCCN2CCOCC2)ccc2c3n(c(=NC(=O)c4cnc(N)nc4)nc12)CCN3`, the pIC50 is 7.30 and 7.40. For the same molecule, the viability, T/C (compound 0.00316 µM) is 84% and 88.5%. Also, the viability, T/C (compound 0.01 µM) was 70.3% and 69.2%. For the same molecule, the viability, T/C (compound 0.0316 µM) was 55.8% and 53.5%. Besides, the viability, T/C (compound 0.1 µM) is 43.3% and 42%. Besides, under “compound 0.316 µM”, the viability, T/C is 34.1% and 33.4%. Further, the viability, T/C (compound 1 µM) is 37.6% and 40.3%.

Consider `Cc1nc(NC(=O)N2CCCC2C(N)=O)sc1-c1ccnc(C(C)(C)C(F)(F)F)c1` (configuration not stated), for which the pIC50 was under 5.00. In addition, the viability, T/C (compound 0.0316 µM) was 92.2% and 88.6%. The viability, T/C (compound 0.1 µM) is 74.9% and 72.1%. In addition, where the note is “compound 0.316 µM”, the viability, T/C is 68.2% and 66%. Besides, under “compound 1 µM”, the viability, T/C is 65.7% and 73.6%. For the same molecule, the viability, T/C (compound 3.16 µM) was 66.8% and 71.2%. Also, the viability, T/C (compound 10 µM) is 62.7% and 60.5%.

In the case of `Cn1cnc2c(F)c(Nc3ccc(Br)cc3Cl)c(C(=O)NOCCO)cc21`, the pIC50 was 6.73 and 7.14. The viability, T/C (compound 0.00949 µM) was 75.6% and 63.3%. The viability, T/C (compound 0.03 µM) was 59.9% and 54.4%. For the same molecule, for the setting “compound 0.0949 µM”, the viability, T/C is 54.8% and 50.4%. Moreover, the viability, T/C (compound 0.3 µM) was 52.9% and 41.3%. In addition, the viability, T/C (compound 0.949 µM) is 27.7% and 30.4%. Moreover, for the setting “compound 3 µM”, the viability, T/C is 14.4% and 19.2%.

On to `Cn1ncc(Cl)c1-c1cc(C(=O)NC(CN)Cc2cccc(F)c2)sc1Cl` (configuration not stated), for which the pIC50 is 5.82 and 5.88. Further, the viability, T/C (compound 0.0316 µM) was 100% and 101%. In addition, the viability, T/C (compound 0.1 µM) is 89.6% and 87.9%. For the setting “compound 0.316 µM”, the viability, T/C is 75.6%. In addition, where the note is “compound 1 µM”, the viability, T/C is 57.4% and 57.5%. In addition, where the note is “compound 3.16 µM”, the viability, T/C is 37.4% and 30%. The viability, T/C (compound 10 µM) was 0.23% and 0.17%.

On to `Cn1nccc1Nc1nccc(-c2ccn(C(CO)c3ccc(Cl)c(F)c3)c(=O)c2)n1` (configuration not stated), for which the negative-log IC50 (pIC50) is 6.39 and 6.68. For the same molecule, under “compound 0.0316 µM”, the viability, T/C was 71% and 65.7%. In addition, under “compound 0.1 µM”, the viability, T/C was 59% and 53.1%. The viability, T/C (compound 0.316 µM) is 49.6% and 47.1%. For the same molecule, the viability, T/C (compound 1 µM) is 48% and 38%. Further, under “compound 3.16 µM”, the viability, T/C is 30.3% and 33.5%. For the same molecule, where the note is “compound 10 µM”, the viability, T/C is 23.5% and 21.3%.

With `Cn1ncnc1[C@H]1c2n[nH]c(=O)c3cc(F)cc(c23)N[C@@H]1c1ccc(F)cc1`, the pIC50 was under 7.00. The viability, T/C (compound 0.000316 µM) was 99.2% and 96.9%. Also, where the note is “compound 0.001 µM”, the viability, T/C is 92.1% and 94%. For the same molecule, the viability, T/C (compound 0.00316 µM) is 81.4% and 85.3%. The viability, T/C (compound 0.01 µM) is 79.3% and 79.6%. Also, the viability, T/C (compound 0.0316 µM) is 77.7% and 75.4%. Moreover, under “compound 0.1 µM”, the viability, T/C is 67.3% and 69.8%.
